In patent US6090825A, “Oxazole derivatives as antagonists of alpha 1C andrenergic receptors” (Glaxo Wellcome Inc., priority 1994, dated 2000):
Where a name gives a salt, the structure may show the parent alone. One block for each compound: values may come before it.

Key:
diastolic blood pressure = experiment: Canine model: inhibition of phenylephrine response on diastolic blood pressure in anesthetized dog; type: in vivo, male mongrel dogs; details: Canis lupus familiaris, iv, dose (salt) producing 50% inhibition of agonist (phenylephrine) response on diastolic blood pressure, cumulative i.v. infusion, read-out: BP ED50
Description: (§1) A. CANINE URETHRAL-PROSTATE PRESSURE
(§2) To evaluate the ability of compounds to affect urethral-prostate pressure (contractility) while assessing their cardiovascular effects simultaneously.
(§3) Using hypogastric nerve stimulation (NS) and the .varies.-1 agonist phenylephrine (or other receptor agonists, as appropriate) the responses of urethral pressures and systemic blood pressure are recorded. The tests compounds are then given in a log dose infusion. The inhibition of the NS response within the prostate as well as the systemic phenylephrine response on blood pressure is measured to assess the uro-selectivity of the compound in the anesthetized dog.
Interesting compounds are those that express uro-selectivity with a ratio of >100 for the urethral pressure vs diastolic blood pressure comparisons (BP.US). […]
(§4) 4. Rectal temperature is monitored and maintained at 37-39° C. with a heating pad. […]
(§5) 1. After a control period of at least 30 minutes and establishment of stable baselines of urethral and blood pressure are observed, the control responses to NS or phenylephrine bolus are recorded.
3. At a time point 5 minutes post NS a phenylephrine bolus (10 μg/kg) is given into the cephalic vein and changes in blood pressure are recorded. At least two NS and phenylephrine injections are performed and evaluated for their consistency, the second consistent stimulation is picked for the baseline value response. […]

urethral pressure = experiment: Canine urethral-prostate pressure: inhibition of hypogastric nerve stimulation response in anesthetized dog; type: in vivo, male mongrel dogs
Description: as §1, §2
as §3, with “dog. […]” for “dog.”
as §4
3. […] The effects of either nerve stimulation (NS) or IV phenylephrine can be evaluated.
as §5
2. A hypogastric nerve stimulation of 16 Hertz, 10 Volts, 10 msec pulse width and 10 sec train duration are given and changes in urethral pressures are recorded.
3. At a time point 5 minutes post NS a phenylephrine bolus (10 μg/kg) is given into the cephalic vein and changes in blood pressure are recorded. […]

male Wistar rats = experiment: Behavioural and autonomic observation after oral dosing in rats; type: in vivo; details: 10 mg/kg po
Description: The compound of Example 13 was administered at 10 mg/kg (po) to male Wistar rats.

[1] = Crystal form stability and hygroscopicity; type: physicochemical
Description: Compounds of the present invention can exist in more than one crystalline form. For example, crystalline forms may vary from solvate to solvate. Compounds of the present invention encompass all possible crystalline forms. In particular, for example, 5-(2-{4-[5-(4-fluorophenyl)-4-(2,2,2-trifluoroethoxymethyl)-oxazol-2-yl}-ethyl)-2-methoxybenzenesulfonamide hydrochloride exists in four known crystal forms. Form I melts around 145° C. and converts to Form III which has a melting point around 200° C.

Structure (SMILES): COc1ccc(CCN2CCC(c3nc(COCC(F)(F)F)c(-c4ccc(F)cc4)o3)CC2)cc1S(N)(=O)=O [Example 12, 2-Methoxy-5-(2-{4-[5-(4-fluoro-phenyl)-4-(2,2,2-trifluoro-ethoxymethyl)-oxazol-2-yl]-piperidin-1-yl}-ethyl)-benzenesulfonamide]
ED50 (diastolic blood pressure): 7.15 mg/kg
ED50 (urethral pressure; Canis lupus familiaris, iv, dose (salt) producing 50% inhibition of nerve stimulation response on urethral pressure, cumulative i.v. infusion, anesthetized dog, read-out: UP ED50): 0.013 mg/kg
BP/UP (urethral pressure; ratio of the BP ED50 to the UP ED50, uro-selectivity): 550

ptosis (male Wistar rats; between 1 and 4 hours after dosing): Slight to moderate ptosis was observed
hygroscopicity ([1]; below 70% relative humidity): non-hydgroscopic
solid state and chemical stability ([1]; below 70% relative humidity): good solid state and chemical stability
conversion of crystal form ([1]; greater than 70% relative humidity): converts to form IV
Structure (SMILES): COc1ccc(CCN2CCC(c3nc(COCC(F)(F)F)c(-c4ccc(F)cc4)o3)CC2)cc1S(N)(=O)=O [Example 13, 5-(2-{4-[5-(4-fluorophenyl)-4-(2,2,2-trifluoroethoxymethyl)-oxazol-2-yl}-ethyl)-2-methoxybenzenesulfonamide hydrochloride]
animals' appearance by 24 hours after dosing (male Wistar rats; 24 hours): all animals appeared normal by 24 hours after dosing

conversion of crystal form ([1]; room temperature, aqueous media): convert to a hydrated form (Form IV)
Structure (SMILES): COc1ccc(CCN2CCC(c3nc(COCC(F)(F)F)c(-c4ccc(F)cc4)o3)CC2)cc1S(N)(=O)=O [Form I, 5-(2-{4-[5-(4-fluorophenyl)-4-(2,2,2-trifluoroethoxymethyl)-oxazol-2-yl}-ethyl)-2-methoxybenzenesulfonamide hydrochloride]

Structure (SMILES): COc1ccc(CCN2CCC(c3nc(COCC(F)(F)F)c(-c4ccc(F)cc4)o3)CC2)cc1S(N)(=O)=O [Form IV, 5-(2-{4-[5-(4-fluorophenyl)-4-(2,2,2-trifluoroethoxymethyl)-oxazol-2-yl}-ethyl)-2-methoxybenzenesulfonamide hydrochloride]
conversion of crystal form ([1]; upon separation from the aqueous media): readily converts to an anhydrous form (Form II)
